Test results published in ChEMBL document CHEMBL5726505, “Heteroaryl compounds as IRAK inhibitors and uses thereof” (2017).

Molecular target: T1, Interleukin-1 receptor-associated kinase 4 (Homo sapiens, UniProt Q9NWZ3)
T1 sequence (Q9NWZ3 whole entry): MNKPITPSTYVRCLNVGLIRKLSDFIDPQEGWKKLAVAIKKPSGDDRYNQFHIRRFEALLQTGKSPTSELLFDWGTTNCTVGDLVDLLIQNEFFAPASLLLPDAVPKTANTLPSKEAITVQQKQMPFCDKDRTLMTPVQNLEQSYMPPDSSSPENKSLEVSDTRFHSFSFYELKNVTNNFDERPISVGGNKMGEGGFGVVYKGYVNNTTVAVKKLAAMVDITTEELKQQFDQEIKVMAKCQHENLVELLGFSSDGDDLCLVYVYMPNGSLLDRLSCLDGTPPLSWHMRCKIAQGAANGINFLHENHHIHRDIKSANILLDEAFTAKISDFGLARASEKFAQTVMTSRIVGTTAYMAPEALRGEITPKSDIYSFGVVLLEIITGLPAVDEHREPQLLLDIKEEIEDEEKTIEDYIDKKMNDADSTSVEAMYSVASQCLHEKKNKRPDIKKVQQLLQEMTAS
Test: Enzymatic Assay: IRAK4 is a human purified recombinant enzyme (His-TEV-[…] ([…]). IRAK4 hydrolyses ATP, autophosphorylates and phosphorylates a Serine/Threonine generic peptidic substrate (STK: 61ST1BLC from CisBio International based in Bagnols/Cèze FR).Measurement of IRAK-4 inhibition was performed in streptavidin coated 384well FlashPlate (PerkinElmer #SMP410A). His-TEV-IRAK4 (20 ng/well), ATP (2 μM, [33P]ATP 0.25 µCi/well), STK1-biotin peptide (300 nM) and compounds in DMSO (range of concentrations from 20 µM to 1 nM) or controls (2% DMSO) were incubated for 3 hours at 30° C. in assay buffer: Hepes pH7.0 50 mM, Fatty acid-free BSA 0.1%, Dithiothreitol DTT 2 mM, MgCl2 10 mM, EGTA 0.5 mM, Tween-20 0.01%, MnCl2 5 mM.

| IC50 | SMILES |
| --- | --- |
| < 100 nM | Cn1cc(-c2cccc(-c3ncc(-c4cnn(C)c4)c(N[C@H]4CCN(S(C)(=O)=O)C4)n3)c2)cn1 |
| < 100 nM | Cn1cc(-c2cccc(-c3ncc(-c4ccn(C)n4)c(O[C@@H]4CCC[C@@H](N)[C@@H]4O)n3)c2)cn1 |
| < 100 nM | Cc1nnc(-c2cnc(-c3cccc(-c4cnn(C)c4)c3)nc2NC2CCN(S(C)(=O)=O)CC2)s1 |
| > 5000 nM | Cn1cc(-c2cccc(-c3ncc(-c4cnn(C)c4)c(NCC4CCCN(C(=O)OC(C)(C)C)C4)n3)c2)cn1 (centres undefined) |
